What was measured:
psoriasis [1] = experiment: Case studies of patients with drug-resistant psoriasis (PASI score, skin state, recurrence, tolerability)
Source text: (§1) Psoriasis can be divided into mild, moderate, and severe according to the severity. The severity can be determined by PASI (Psoriasis Area Severity Index) scores. PASI is a set of scoring indicators that are widely used internationally to reflect the severity of psoriasis. In the scoring system, four parts, i.e., the head, upper limbs, torso, and lower limbs, are used for comprehensive scoring according to indicators such as erythema, desquamation, infiltration, and area of involvement. The higher the score, the more severe the condition of psoriasis. The specific scoring rules are well known in the field of medical diagnosis.
(§2) Ineffective: The PASI score of psoriasis after treatment is more than 50% of the score before treatment, namely, PASI after treatment÷PASI before treatment×100%>50%.

psoriasis [2] = details: human, in vivo
Source text: as §1, §2

[3] = Example 4, person, tretinoin cream, calcipotriol ointment and other treatments
[4] = Example 4, after tretinoin cream, calcipotriol ointment and other treatments
[5] = Example 6, person, tretinoin cream, calcipotriol ointment, methotrexate tablets and other treatments in the past
[6] = Example 6, after tretinoin cream, calcipotriol ointment, methotrexate tablets and other treatments, severe psoriasis
[7] = Example 7, after secukinumab treatment

Compound: CCOC(=O)c1ccc(C#Cc2ccc3c(c2)C(C)(C)CCS3)nc1 [tazarotene cream, tazarotene]
- effect of treatment (psoriasis [1]; Example 5, person, two months of treatment): ineffective

Compound: C=C1/C(=C\C=C2/CCC[C@]3(C)[C@@H]([C@H](C)/C=C/[C@@H](O)C4CC4)CC[C@@H]23)C[C@@H](O)C[C@@H]1O [calcipotriol ointment, calcipotriol]
- skin irritation (psoriasis [2]): severe
- PASI score (psoriasis [1]; Example 3, person, after 1 month of use): 5.3
- PASI improvement vs before treatment (psoriasis [1]; Example 3, after 1 month of use): 10%
- effect of treatment (psoriasis [1]; [3]): healed
- relapse (psoriasis [1]; [4]): relapsed three months after the drug withdrawal
- effect of treatment (psoriasis [1]; [5]): not alleviated
- PASI score (psoriasis [1]; [6]): 13.8

Compound: CC1=C(/C=C/C(C)=C/C=C/C(C)=C/C(=O)O)C(C)(C)CCC1 [tretinoin cream, tretinoin]
- effect of treatment (psoriasis [1]; [3]): healed
- relapse (psoriasis [1]; [4]): relapsed three months after the drug withdrawal
- effect of treatment (psoriasis [1]; [5]): not alleviated
- PASI score (psoriasis [1]; [6]): 13.8

Compound: Adalimumab
- PASI decrease (psoriasis [1]; Example 6, after one course of treatment, PASI before 13.8): 32%

Compound: CN(Cc1cnc2nc(N)nc(N)c2n1)c1ccc(C(=O)N[C@@H](CCC(=O)O)C(=O)O)cc1 [methotrexate tablets, methotrexate]
- relapse (psoriasis [1]; Example 3, after relief, within two years follow-up): relapsed twice
- effect of treatment (psoriasis [1]; Example 3, taken after lysozyme buccal tablets withdrawal, self-reported): the psoriasis was relieved
- PASI score (psoriasis [1]; Example 4, after oral methotrexate treatment): 9.3
- effect of treatment (psoriasis [1]; Example 4, oral treatment after relapse): the condition was not alleviated
- effect of treatment (psoriasis [1]; [5]): not alleviated
- PASI score (psoriasis [1]; [6]): 13.8

Compound: secukinumab: IL-17 inhibitor
- tolerability (psoriasis [2]): intolerance occurred
- PASI decrease (psoriasis [1]; [7]): 10%
- PASI score (psoriasis [1]; [7]): 8.7
